Data reported in US11591341B2 (ALIGOS THERAPEUTICS, INC., priority 2019, dated 2023).
Like-named read-outs stand apart in the source and are kept apart here.

System: HBV
Test: HBV-DNA Antiviral Assay Using HepG2.117 Cells (intracellular HBV DNA by qPCR)
Type: cell-based, hepatitis B virus (genotype D)
Method in brief: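 HepG2.117 cells (genotype D HBV, Tet-off) were induced by doxycycline withdrawal and treated for 3 days with 9 concentrations in 4-fold dilution, 2% DMSO final. Intracellular HBV DNA was measured by qPCR against a standard curve, with ATPlite viability read in parallel. EC50, EC90 and CC50 came from fits against the DMSO control.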

SMILES | EC50 (Hepatitis B virus, HepG2.117) | EC50 (HBV DNA inhibition, HepG2.117 cells, intracellular HBV DNA by qPCR (Table 4), read-out: EC50)
N#CCOc1ccc(-n2c(C(=O)NCc3ccccc3)c3n(c2=O)CCN(C(=O)c2ccc(Br)c(Cl)c2)C3)cc1 [Example 265, N-benzyl-7-(4-bromo-3-chloro-benozyl)-2-[4-(cyanomethoxy)phenyl]-3-oxo-6,8-dihydro-5H-imidazo[1,5-a]pyrazine-1-carboxamide] | 500 to 5000 nM | –
COc1ccc(CNC(=O)c2c3n(c(=O)n2-c2ccc(OCC(F)(F)F)cc2)CCN(C(=O)c2ccc(Br)c(Cl)c2)C3)c(OC(F)F)c1 [Example 266] | 100 to 500 nM | –
O=C(NCc1ccccc1)c1c2n(c(=O)n1-c1ccc(-n3cccn3)cc1)CCN(C(=O)c1ccc(Br)c(Cl)c1)C2 [Example 271, N-benzyl-7-(4-bromo-3-chloro-benzoyl)-3-oxo-2-(4-pyrazol-1-ylphenyl)-6,8-dihydro-5H-imidazo[1,5-a]pyrazine-1-carboxamide] | 100 to 500 nM | –
CC(C)COc1ccc(-n2c(C(=O)NCc3ccccc3)c3n(c2=O)CCN(C(=O)c2ccc(Br)c(Cl)c2)C3)cc1 [Example 272, N-benzyl-7-(4-bromo-3-chloro-benzoyl)-2-(4-isobutoxyphenyl)-3-oxo-6,8-dihydro-5H-imidazo[1,5-a]pyrazine-1-carboxamide] | 100 to 500 nM | –
COc1ccc(-n2c(-c3ccccn3)c3n(c2=O)CCN(C(=O)c2ccc(Br)c(Cl)c2)C3)cc1 [Example 275, 7-(4-bromo-3-chloro-benzoyl)-2-(4-methoxyphenyl)-1-(2-pyridyl)-6,8-dihydro-5H-imidazo[1,5-a]pyrazin-3-one] | > 5000 nM | –
Cc1coc2ccc(-n3c(C(=O)NCc4ccccc4)c4n(c3=O)CCN(C(=O)c3ccc(Br)c(Cl)c3)C4)cc12 [Example 276] | 100 to 500 nM | –
O=C(NCc1cccc2nccnc12)c1c2n(c(=O)n1-c1ccc(OCC(F)(F)F)cc1)CCN(C(=O)c1ccc(Br)c(Cl)c1)C2 [Example 277, 7-(4-bromo-3-chloro-benzoyl)-3-oxo-N-(quinoxalin-5-ylmethyl)-2-[4-(2,22,- trifluoroethoxy)phenyl]-6,8-dihydro-5H-imidazo[1,5-a]pyrazine-1-carboxamide] | < 100 nM | –
O=C(NCc1ccccc1)c1c2n(c(=O)n1-c1ccc(N3CCOCC3)cc1)CCN(C(=O)c1ccc(Br)c(Cl)c1)C2 [Example 278, N-benzyl-7-(4-bromo-3-chloro-benzoyl)-2-(4-morpholinophenyl)-3-oxo-6,8-dihydro-5H-imidazo[1,5-a]pyrazine-1-carboxamide] | 100 to 500 nM | –
O=C(NCc1ccc(OC(F)(F)F)cc1F)c1c2n(c(=O)n1-c1ccc(OCC(F)(F)F)cc1)CCN(C(=O)c1ccc(Br)c(Cl)c1)C2 [Example 284, 7-(4-bromo-3-chloro-benzoyl)-N-[[2-fluoro-4-(trifluoromethoxy)phenyl]methyl]-3-oxo-2-[4-(2,2,2-trifluoroethoxy)phenyl]-6,8-dihydro-5H-imidazo[1,5-a]pyrazine-1-carboxamide] | 500 to 5000 nM | –
NC(=O)COc1ccc(-n2c(C(=O)NCc3ccccc3)c3n(c2=O)CCN(C(=O)c2ccc(Br)c(Cl)c2)C3)cc1 [Example 285, 2-[4-(2-amino-2-oxo-ethoxy)phenyl]-N-benzyl-7-(4-bromo-3-chloro-benzoyl)-3-oxo-6,8-dihydro-5H-imidazo[1,5-a]pyrazine-1-carboxamide] | 500 to 5000 nM | –
O=C(NCc1ccc(OC(F)F)cc1F)c1c2n(c(=O)n1-c1ccc(OCC(F)(F)F)cc1)CCN(C(=O)c1ccc(Br)c(Cl)c1)C2 [Example 286, 7-(4-bromo-3-chloro-benzoyl)-N-[[4-(difluoromethoxy)-2-fluoro-phenyl]methyl]-3-oxo-2-[4-(2,2,2-trifluoroethoxy)phenyl]-6,8-dihydro-5H-imidazo[1,5-a]pyrazine-1-carboxamide] | 500 to 5000 nM | –
N#Cc1ccc(CNC(=O)c2c3n(c(=O)n2-c2ccc(OCC(F)(F)F)cc2)CCN(C(=O)c2ccc(Br)c(Cl)c2)C3)c(F)c1 [Example 287, 7-(4-bromo-3-chloro-benzoyl)-N-[(4-cyano-2-fluoro-phenyl)methyl]-3-oxo-2-[4-(2,2,2-trifluoroethoxy)phenyl]-6,8-dihydro-5H-imidazo[1,5-a]pyrazine-1-carboxamide] | 500 to 5000 nM | –
CC(C)Oc1ccc(-n2c(C(=O)NCc3ccc(C(=O)O)cc3)c3n(c2=O)CCN(C(=O)c2ccc(Br)c(Cl)c2)C3)cc1 [Example 294, 4-[[[7-(4-bromo-3-chloro-benzoyl)-2-(4-isopropoxyphenyl)-3-oxo-6,8-dihydro-5H-imidazo[1,5-a]pyrazine-1-carbonyl]amino]methyl]benzoic acid] | > 5000 nM | –
Cc1cc2occc2cc1CNC(=O)c1c2n(c(=O)n1-c1ccc(OCC(F)(F)F)cc1)CCN(C(=O)c1ccc(Br)c(Cl)c1)C2 [Example 295, 7-(4-bromo-3-chloro-benzoyl)-N-[(6-methylbenzofuran-5-yl)methyl]-3-oxo-2-[4-(2,2,2-trifluoroethoxy)phenyl]-6,8-dihydro-5H-imidazo[1,5-a]pyrazine-1-carboxamide] | 100 to 500 nM | –
O=C(NCc1ccc(OC(F)(F)F)cc1F)c1c2n(c(=O)n1-c1ccc(OC3CC3)cc1)CCN(C(=O)c1ccc(Br)c(Cl)c1)C2 [Example 296, 7-(4-bromo-3-chloro-benzoyl)-2-[4-(cyclopropoxy)phenyl]-N-[[2-fluoro-4-(trifluoromethxoy)phenyl]methyl]-3-oxo-6,8-dihydro-5H-imidazo[1,5-a]pyrazine-1-carboxamide] | 500 to 5000 nM | –
O=C(NCc1ccc(OC(F)F)cc1F)c1c2n(c(=O)n1-c1ccc(OC3CC3)cc1)CCN(C(=O)c1ccc(Br)c(Cl)c1)C2 [Example 297, 7-(4-bromo-3-chloro-benzoyl)-2-[4-(cyclopropoxy)phenyl]-N-[[4-(difluoromethoxy)-2-fluoro-phenyl]methyl]-3-oxo-6,8-dihydro-5H-imidazo[1,5-a]pyrazine-1-carboxamide] | 100 to 500 nM | –
O=C(NCc1ccccc1)c1c2n(c(=O)n1-c1ccc3[nH]ncc3c1)CCN(C(=O)c1ccc(Br)c(Cl)c1)C2 [Example 298, N-benzyl-7-(4-bromo-3-chloro-benzoyl)-2-(1H-indazol-5-yl)-3-oxo-6,8-dihydro-5H-imidazo[1,5-a]pyrazine-1-carboxamide] | 500 to 5000 nM | –
NC(=O)COc1ccc(CNC(=O)c2c3n(c(=O)n2-c2ccc(OCC(F)(F)F)cc2)CCN(C(=O)c2ccc(Br)c(Cl)c2)C3)c(F)c1 [Example 303, N-[[4-(2-amino-2-oxo-ethoxy)-2-fluoro-phenyl]methyl]-7-(4-bromo-3-chloro-benzoyl)-3-oxo-2-[4-(2,2,2-trifluoroethoxy)phenyl]-6,8-dihydro-5H-imidazo[1,5-a]pyrazine-1-carboxamide] | 500 to 5000 nM | –
O=C(NCc1ccccc1-n1cncn1)c1c2n(c(=O)n1-c1ccc(OCC(F)(F)F)cc1)CCN(C(=O)c1ccc(Br)c(Cl)c1)C2 [Example 304, 7-(4-bromo-3-chloro-benzoyl)-3-oxo-N-[[2-(1,2,4-triazol-1-yl)phenyl]methyl]-2-[4-(2,2,2-trifluoroethoxy)phenyl]-6,8-dihydro-5H-imidazo[1,5-a]pyrazine-1-carboxamide] | < 100 nM | –
O=C(NCc1c(F)cccc1Cl)c1c2n(c(=O)n1-c1ccc(OC3CC3)cc1)CCN(C(=O)c1ccc(Br)c(Cl)c1)C2 [Example 305, 7-(4-bromo-3-chloro-benzoyl)-N-[(2-chloro-6-fluoro-phenyl)methyl]-2-[4-(cyclopropoxy)phenyl]-3-oxo-6,8-dihydro-5H-imidazo[1,5-a]pyrazine-1-carboxamide] | 100 to 500 nM | –
O=C(NCc1c(F)cccc1F)c1c2n(c(=O)n1-c1ccc(OC3CC3)cc1)CCN(C(=O)c1ccc(Br)c(Cl)c1)C2 [Example 306, 7-(4-bromo-3-chloro-benzoyl)-2-[4-(cyclopropoxy)phenyl]-N-[(2,6-difluorophenyl)methyl]-3-oxo-6,8-dihydro-5H-imidazo[1,5-a]pyrazine-1-carboxamide] | 100 to 500 nM | –
N#Cc1ccc(CNC(=O)c2c3n(c(=O)n2-c2ccc(OC4CC4)cc2)CCN(C(=O)c2ccc(Br)c(Cl)c2)C3)c(F)c1 [Example 307] | 500 to 5000 nM | –
COc1ccc(-n2c(-c3ncccc3Cc3ccccc3)c3n(c2=O)CCN(C(=O)c2ccc(Br)c(Cl)c2)C3)cc1 [Example 308, 1-(3-benzyl-2-pyridyl)-7-(4-bromo-3-chloro-benzoyl)-2-(4-methoxyphenyl)-6,8-dihdyro-5H-imidazo[1,5-a]pyrazin-3-one] | – | 500 to 5000 nM
CNc1ccc(-n2c(C(=O)NCc3ccccc3)c3n(c2=O)CCN(C(=O)c2ccc(Br)c(Cl)c2)C3)cc1 [Example 311, N-benzyl-7-(4-bromo-3-chloro-benzoyl)-2-[4-(methylamino)phenyl]-3-oxo-6,8-dihydro-5H-imidazo[1,5-a]pyrazine-1-carboxamide] | 100 to 500 nM | –
O=C(NCc1ccccc1)c1c2n(c(=O)n1-c1ccc(-n3ccnc3)cc1)CCN(C(=O)c1ccc(Br)c(Cl)c1)C2 [Example 312, N-benzyl-7-(4-bromo-3-chloro-benzoyl)-2-(4-imidazol-1-ylphenyl)-3-oxo-6,8-dihydro-5H-imidazo[1,5-a]pyrazine-1-carboxamide] | 500 to 5000 nM | –
N#CCOc1ccc(CNC(=O)c2c3n(c(=O)n2-c2ccc(OC4CC4)cc2)CCN(C(=O)c2ccc(Br)c(Cl)c2)C3)c(F)c1 [Example 323, 7-(4-bromo-3-chloro-benzoyl)-N-[[4-(cyanomethoxy)-2-fluoro-phenyl]methyl]-2-[4-(cyclopropoxy)phenyl]-3-oxo-6,8-dihydro-5H-imidazo[1,5-a]pyrazine-1-carboxamide] | 100 to 500 nM | –
NC(=O)COc1ccc(CNC(=O)c2c3n(c(=O)n2-c2ccc(OC4CC4)cc2)CCN(C(=O)c2ccc(Br)c(Cl)c2)C3)c(F)c1 [Example 324, N-[[4-(2-amino-2-oxo-ethoxy)-2-fluoro-phenyl]methyl]-7-(4-bromo-3-chloro-benzoyl)-2-[4-(cyclopropoxy)phenyl]-3-oxo-6,8-dihydro-5H-imidazo[1,5-a]pyrazine-1-carboxamide] | 100 to 500 nM | –
